pIC50: −log10 of the molar value.
biological target: α p38 (Homo sapiens, UniProt Q16539); assay: p38 MAP kinase inhibitory activity (33P-ATP / myelin basic protein filter assay); type: biochemical; details: @ 1 μM; read-out: percentage inhibition of the p38 activity
Method: Compounds of the invention were tested for p38 MAP kinase inhibitory activity using the following protocol.
The reaction was allowed to proceed for fifty minutes before being stopped with an excess of ortho-phosphoric acid (30 μl at 2%). γ^33 P-ATP which remained unincorporated into the myelin basic protein was separated from phoshorylated MBP on a Mlipore (RTM) MAPH filter plate. The wells of the MAPH plate were wetted with 0.5% orthophosphoric acid, and then the results of the reaction were filtered with a Millipore vacuum filtration unit through the wells. Following filtration, the residue was washed twice with 200 μl of 0.5% orthophosphoric acid. Once the filters had dried, […] of Microscint 20™ scintillant was added, and then counted on a Packard Topcount™ counter for 30 seconds. The percentage inhibition of the p38 activity was calculated and plotted in order to determine the concentration of the test compound required to inhibit 50% of the p38 activity (IC50).

Sequence of α p38 (Q16539 whole entry): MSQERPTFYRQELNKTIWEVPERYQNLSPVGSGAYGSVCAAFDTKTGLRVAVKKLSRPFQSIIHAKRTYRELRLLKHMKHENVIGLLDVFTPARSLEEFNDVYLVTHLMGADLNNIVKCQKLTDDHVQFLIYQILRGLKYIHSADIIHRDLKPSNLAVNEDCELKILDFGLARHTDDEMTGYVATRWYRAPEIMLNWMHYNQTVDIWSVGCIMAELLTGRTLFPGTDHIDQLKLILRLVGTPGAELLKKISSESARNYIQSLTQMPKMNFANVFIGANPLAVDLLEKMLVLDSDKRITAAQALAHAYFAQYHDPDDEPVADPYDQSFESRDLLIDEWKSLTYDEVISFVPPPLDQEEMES

inhibition at 1 µM	Compound
28%	O=C(Nc1ccc2[nH]cc(CCc3ccncc3)c2c1)c1ccc(N2CCCC2=O)cc1 [Example 26, 5-(4-(2-oxo-pyrrolidin-1-yl)benzamido)-3-(2-(4-pyridyl)ethyl)indole]

same assay, conditions: @ 3 μM; read-out: percentage inhibition of the p38 activity

inhibition at 3 µM	Compound
36%	O=C(Nc1ccc2c(CCc3ccncc3)c[nH]c2c1)c1cc(F)cc(N2CCOCC2)c1 [Example 15B, 6-(3-Fluoro-5-(4-morpholino)benzamido)-3-(2-(4-pyridyl)ethyl)indole]

same assay, conditions: @ 300 μM; read-out: percentage inhibition of the p38 activity

inhibition at 300 µM	Compound
25%	O=C1c2ccccc2C(=O)N1c1ccc2[nH]cc(CCc3ccncc3)c2c1 [Example 24B, 5-(1-Phthalimido)-3-(2-(4-pyridyl)ethyl)indole]

same assay, conditions: @ 1 mM; read-out: percentage inhibition of the p38 activity

inhibition at 1000 µM	Compound
23%	Nc1ccc2[nH]cc(CCc3ccncc3)c2c1 [Example 20A, 5-Amino-3-(2-(4-pyridyl)ethyl)indole]

same assay, conditions: MKK6-activated α p38, MBP substrate, 50 min reaction

Compound	pIC50
3-(2-(4-Pyridyl)ethyl-7-azaindole [Example 12]	3.75
c1ccc2c(CCc3ccncc3)c[nH]c2c1 [Example 1, 3-(2-(4-Pyridyl)ethyl)indole]	4.48
Cn1cc(CCc2ccncc2)c2ccccc21 [Example 2, 1-Methyl-3-(2-(4-pyridyl)ethyl)indole]	3.62
c1ccc(CCc2c[nH]c3ccccc23)nc1 [Example 3, 3-(2-(2-Pyridyl)ethyl)indole]	3.09
Cc1ccc2[nH]cc(CCc3ccncc3)c2c1 [Example 4, 5-Methyl-3-(2-(4-pridyl)ethyl)indole]	3.60
Clc1ccc2[nH]cc(CCc3ccncc3)c2c1 [Example 5, 5-Chloro-3-(2-(4-pyridyl)ethyl)indole]	3.91
O=[N+]([O-])c1ccc2[nH]cc(CCc3ccncc3)c2c1 [Example 6, 5-Nitro-3-(2-(4-pyridyl)ethyl)indole]	3.52
CC(=O)Nc1ccc2[nH]cc(CCc3ccncc3)c2c1 [Example 7, 5-Acetamido-3-(2-(4-pyridyl)ethyl)indole]	3.19
Cc1[nH]c2ccccc2c1CCc1ccncc1 [Example 8, 2-Methyl-3-(2-(4-pyridyl)ethyl)indole]	3.57
Cc1cccc2[nH]cc(CCc3ccncc3)c12 [Example 9, 4-Methyl-3-(2-(4-pyridyl)ethyl)indole]	3.95
Cc1cccc2c(CCc3ccncc3)c[nH]c12 [Example 10, 7-Methyl-3-(2-(4-pyridyl)ethyl)indole]	4.46
Fc1cccc2[nH]cc(CCc3ccncc3)c12 [Example 11, 4-Fluoro-3-(2-(4-pyridyl)ethyl)indole]	4.35
O=C(Nc1ccc2[nH]cc(CCc3ccncc3)c2c1)c1ccccc1 [Example 13B, 5-Benzamido-3-(2-(pyrid-4-yl)ethyl)indole]	4.40
c1ccc2c(c1)ccn2CCc1ccncc1 [Example 19, 1-(2-(4-pyridyl)ethyl)indole]	3.70
Clc1nccc(CCc2c[nH]c3ccccc23)n1 [Example 22, 3-(2-(2-Chloro-4-pyrimidinyl)ethyl)indole]	3.92
OCCNc1nccc(CCc2c[nH]c3ccccc23)n1 [Example 27]	4.42
CC(C)(CO)Nc1nccc(CCc2c[nH]c3ccccc23)n1 [Example 28, 3-(2-(2-(3-Hydroxy-2-methyl-prop-2-ylamino)-4-pyrimidinyl)ethyl)indole]	5.82
C[C@H](Nc1nccc(CCc2c[nH]c3ccccc23)n1)c1ccccc1 [Example 29, 3-(2-(2-((S)-(−)-α-methylbenzylamino)-4-pyrimidinyl)ethyl)indole]	5.52
C[C@@H](Nc1nccc(CCc2c[nH]c3ccccc23)n1)c1ccccc1 [Example 30, 3-(2-(2-((R)-(+)-α-methylbenzylamino)-4-pyrimidinyl)ethyl)idole]	4.82
c1ccc2c(CCc3ccncn3)c[nH]c2c1 [Example 31, 3-(2-(4-Pyrimidinyl)ethyl)indole]	3.15

Second part, the compound after the results:

pIC50	Compound
5.70	O=C(Nc1ccc2[nH]cc(CCc3ccncc3)c2c1)c1cccc(OC(F)(F)F)c1 [Example 16B, 5-(3-Trifluoromethoxybenzamido)-3-(2-(4-pyridy)ethyl)indole]
5.40	O=C(Nc1ccc2[nH]cc(CCc3ccncc3)c2c1)c1cccc(C(F)(F)F)c1 [Example 17B]
5.52	O=C(Nc1ccc2c(ccn2CCc2ccncc2)c1)c1cc(F)cc(N2CCOCC2)c1 [Example 18B, 5-(3-Fluoro-5-(4-morpholino)benzamido)-1-(2-(4-pyridyl)ethyl)indole]
4.55	O=C(Nc1ccccc1)Nc1ccc2[nH]cc(CCc3ccncc3)c2c1 [Example 20B, 5-(Phenylcarbamoylamino)-3-(2-(4-pyridyl)ethyl)indole]
5.89	O=C(Nc1ccc2[nH]cc(CCc3ccncc3)c2c1)c1ccnc(N2CCOCC2)c1 [Example 23B, 5-(2-(4-Morpholino)isonicotinamido)-3-(2-(4-pyridyl)ethyl)indole]
3.32	Nc1ccc2ccn(CCc3ccncc3)c2c1 [Example 25A, 6-Amino-1-(2-(4-pyridyl)ethyl)indole]

same assay, conditions: MKK6-activated α p38, MBP substrate; unit stated in cell

pIC50	Compound
6.30	O=C(Nc1ccc2[nH]cc(CCc3ccncc3)c2c1)c1cc(F)cc(N2CCOCC2)c1 [Example 14B, 5-(3-Fluoro-5-(4-morpholino)benzamido)-3-(2-(4-pyridyl)ethyl)indole]
6.84	CC(C)(C)c1cc(NC(=O)Nc2ccc3[nH]cc(CCc4ccncc4)c3c2)n(-c2ccccc2)n1 [Example 32, 5-(3-tert-Butyl-1-phenylpyrazol-5-ylcarbamoylamino)-3-(2-(4-pyridyl)ethyl)indole]
< 3.00	Cc1ccc(S(=O)(=O)n2cc(CCc3cccnc3)c3ccccc32)cc1 [Example 34, 1-[(4-Methylphenyl)sulphonyl]-3-(2-(3-pridyl)ethyl)indole]

test system: THP-1 cells; assay: Inhibition of LPS-induced TNF-α production in THP-1 cells, in vitro assay; type: cell-based; details: Homo sapiens; PMA-treated THP-1 cells, 1 μg/ml LPS, 6 h, TNF-α by ELISA
Method: The ability of the compounds of this invention to inhibit the TNF-α release was determined using a rninor modification of the methods described in Rawlins P., et al., “Inhibition of endotoxin-induced TNF-α production in macrophages by 5Z-7-oxo-zeaenol and other fungal resorcyclic acid lactones,” International J. of Immunopharmacology, 21, 799, (1999).
THP-1 cells, human monocytic leukaemic cell line, ECACC) were maintained in culture medium [RPMI 1640 (Invitrogen) and 2 mM L-Glutamine supplemented with 10% foetal bovine serum (Invitrogen)] at approximately 37° C. in humidified 5% CO2 in stationary culture. TBP-1 cells were suspended in culture medium containing 50 ng/ml PMA (SIGMA), seeded into a 96-well tissue culture plate (IWAKI) at 1×10^5 cells/well (100 μl/well) and incubated as described above for approximately 48 h. The medium was then aspirated, the wells washed twice in Phosphate Buffered Saline and 1 μg/ml LPS (SIGMA) in culture medium was added (200 μl/well).
Test compounds were reconstituted in DMSO (SIGMA) and then diluted with the culture medium such that the final DMSO concentration was 0.1%. […] Culture supernatants were collected and the amount of human TNF-α present was determined by ELISA (R&D Systems) performed according to the manufacturer's instructions. […]

pIC50	Compound
6.28	O=C(Nc1ccc2[nH]cc(CCc3ccncc3)c2c1)c1cc(F)cc(N2CCOCC2)c1 [Example 14B, 5-(3-Fluoro-5-(4-morpholino)benzamido)-3-(2-(4-pyridyl)ethyl)indole]

Reference: US20050124620A1, “Pharmaceutical compounds” (priority 2002, published 2005)
